In patent publication US20230017045A1, “PYRIDINE AND PYRIMIDINE CARBOXYLATE HERBICIDES AND METHODS OF USE THEREOF” (Dow AgroSciences LLC, priority 2017, published 2023):

Each compound was assayed on test plant species (assay: Post-emergent herbicidal activity test (greenhouse, foliar spray, visual growth reduction)). Conditions: post-emergence, 336 h, ALOMY: blackgrass (Alopecurus myosuroides), 140 g ai/ha, 14 days after application, read-out: Visual Growth Reduction (%) 14 Days After Application, ALOMY.
Format: in vivo
Summary of the method: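 Plants grown in greenhouse (15 h photoperiod, 23-29° C day/22-28° C night) to first or second true leaf stage were sprayed overhead with compound in acetone/water/isopropanol/DMSO/crop oil/X-77 carrier at 187 L/ha. Injury was scored visually after 14 d on a 0-100% scale versus solvent-blank and untreated controls.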

Row | Compound | pest or weed control at 140 g/ha [%]
1 | C#Cc1cc(-c2ccc(C(F)(F)F)cc2Cl)nc(C(=O)OC)c1Cl [F40, methyl 3-chloro-6-(2-chloro-4-(trifluoromethyl)phenyl)-4-ethynylpicolinate] | 0 to 29

Same assay, conditions: post-emergence, 336 h, AMARE: redroot pigweed (Amaranthus retroflexus), 140 g ai/ha, 14 days after application, read-out: Visual Growth Reduction (%) 14 Days After Application, AMARE

Row | Compound | pest or weed control at 140 g/ha [%]
2 | C#Cc1cc(-c2ccc(C(F)(F)F)cc2Cl)nc(C(=O)OC)c1Cl [F40, methyl 3-chloro-6-(2-chloro-4-(trifluoromethyl)phenyl)-4-ethynylpicolinate] | 0 to 29

Same assay, conditions: post-emergence, 336 h, AVEFA: wild oat (Avena fatua), 140 g ai/ha, 14 days after application, read-out: Visual Growth Reduction (%) 14 Days After Application, AVEFA

Row | Compound | pest or weed control at 140 g/ha [%]
3 | C#Cc1cc(-c2ccc(C(F)(F)F)cc2Cl)nc(C(=O)OC)c1Cl [F40, methyl 3-chloro-6-(2-chloro-4-(trifluoromethyl)phenyl)-4-ethynylpicolinate] | 0 to 29

Same assay, conditions: post-emergence, 336 h, CHEAL: lambsquarters (Chenopodium album), 140 g ai/ha, 14 days after application, read-out: Visual Growth Reduction (%) 14 Days After Application, CHEAL

Row | Compound | pest or weed control at 140 g/ha [%]
4 | C#Cc1cc(-c2ccc(C(F)(F)F)cc2Cl)nc(C(=O)OC)c1Cl [F40, methyl 3-chloro-6-(2-chloro-4-(trifluoromethyl)phenyl)-4-ethynylpicolinate] | 0 to 29

Same assay, conditions: post-emergence, 336 h, CIRAR: canada thistle (Cirsium arvense), 140 g ai/ha, 14 days after application, read-out: Visual Growth Reduction (%) 14 Days After Application, CIRAR

Row | Compound | pest or weed control at 140 g/ha [%]
5 | C#Cc1cc(-c2ccc(C(F)(F)F)cc2Cl)nc(C(=O)OC)c1Cl [F40, methyl 3-chloro-6-(2-chloro-4-(trifluoromethyl)phenyl)-4-ethynylpicolinate] | 0 to 29

Same assay, conditions: post-emergence, 336 h, CYPES: yellow nutsedge (Cyperus esculentus), 140 g ai/ha, 14 days after application, read-out: Visual Growth Reduction (%) 14 Days After Application, CYPES

Row | Compound | pest or weed control at 140 g/ha [%]
6 | C#Cc1cc(-c2ccc(C(F)(F)F)cc2Cl)nc(C(=O)OC)c1Cl [F40, methyl 3-chloro-6-(2-chloro-4-(trifluoromethyl)phenyl)-4-ethynylpicolinate] | 0 to 29

Same assay, conditions: post-emergence, 336 h, DIGSA: crabgrass (Digitaria sanguinalis), 140 g ai/ha, 14 days after application, read-out: Visual Growth Reduction (%) 14 Days After Application, DIGSA

Row | Compound | pest or weed control at 140 g/ha [%]
7 | C#Cc1cc(-c2ccc(C(F)(F)F)cc2Cl)nc(C(=O)OC)c1Cl [F40, methyl 3-chloro-6-(2-chloro-4-(trifluoromethyl)phenyl)-4-ethynylpicolinate] | 0 to 29

Same assay, conditions: post-emergence, 336 h, ECHCG: barnyardgrass (Echinochloa crus-galli), 140 g ai/ha, 14 days after application, read-out: Visual Growth Reduction (%) 14 Days After Application, ECHCG

Row | Compound | pest or weed control at 140 g/ha [%]
8 | C#Cc1cc(-c2ccc(C(F)(F)F)cc2Cl)nc(C(=O)OC)c1Cl [F40, methyl 3-chloro-6-(2-chloro-4-(trifluoromethyl)phenyl)-4-ethynylpicolinate] | 0 to 29

Same assay, conditions: post-emergence, 336 h, IPOHE: ivy-leaf morning glory (Ipomoea hederacea), 140 g ai/ha, 14 days after application, read-out: Visual Growth Reduction (%) 14 Days After Application, IPOHE

Row | Compound | pest or weed control at 140 g/ha [%]
9 | C#Cc1cc(-c2ccc(C(F)(F)F)cc2Cl)nc(C(=O)OC)c1Cl [F40, methyl 3-chloro-6-(2-chloro-4-(trifluoromethyl)phenyl)-4-ethynylpicolinate] | 30 to 44

Same assay, conditions: post-emergence, 336 h, KCHSC: kochia (Bassia scoparia), 140 g ai/ha, 14 days after application, read-out: Visual Growth Reduction (%) 14 Days After Application, KCHSC

Row | Compound | pest or weed control at 140 g/ha [%]
10 | C#Cc1cc(-c2ccc(C(F)(F)F)cc2Cl)nc(C(=O)OC)c1Cl [F40, methyl 3-chloro-6-(2-chloro-4-(trifluoromethyl)phenyl)-4-ethynylpicolinate] | 0 to 29

Same assay, conditions: post-emergence, 336 h, ORYSA: rice (Oryza sativa), 140 g ai/ha, 14 days after application, read-out: Visual Growth Reduction (%) 14 Days After Application, ORYSA

Row | Compound | pest or weed control at 140 g/ha [%]
11 | C#Cc1cc(-c2ccc(C(F)(F)F)cc2Cl)nc(C(=O)OC)c1Cl [F40, methyl 3-chloro-6-(2-chloro-4-(trifluoromethyl)phenyl)-4-ethynylpicolinate] | 0 to 29

Same assay, conditions: post-emergence, 336 h, SETFA: giant foxtail (Setaria faberi), 140 g ai/ha, 14 days after application, read-out: Visual Growth Reduction (%) 14 Days After Application, SETFA

Row | Compound | pest or weed control at 140 g/ha [%]
12 | C#Cc1cc(-c2ccc(C(F)(F)F)cc2Cl)nc(C(=O)OC)c1Cl [F40, methyl 3-chloro-6-(2-chloro-4-(trifluoromethyl)phenyl)-4-ethynylpicolinate] | 0 to 29

Same assay, conditions: post-emergence, 336 h, SORVU: grain sorghum (Sorghum vulgare), 140 g ai/ha, 14 days after application, read-out: Visual Growth Reduction (%) 14 Days After Application, SORVU

Row | Compound | pest or weed control at 140 g/ha [%]
13 | C#Cc1cc(-c2ccc(C(F)(F)F)cc2Cl)nc(C(=O)OC)c1Cl [F40, methyl 3-chloro-6-(2-chloro-4-(trifluoromethyl)phenyl)-4-ethynylpicolinate] | 60 to 74

Same assay, conditions: post-emergence, 336 h, STEME: common chickweed (Stellaria media), 140 g ai/ha, 14 days after application, read-out: Visual Growth Reduction (%) 14 Days After Application, STEME

Row | Compound | pest or weed control at 140 g/ha [%]
14 | C#Cc1cc(-c2ccc(C(F)(F)F)cc2Cl)nc(C(=O)OC)c1Cl [F40, methyl 3-chloro-6-(2-chloro-4-(trifluoromethyl)phenyl)-4-ethynylpicolinate] | 0 to 29

Same assay, conditions: post-emergence, 336 h, TRZAS: wheat, spring (Triticum aestivum), 140 g ai/ha, 14 days after application, read-out: Visual Growth Reduction (%) 14 Days After Application, TRZAS

Row | Compound | pest or weed control at 140 g/ha [%]
15 | C#Cc1cc(-c2ccc(C(F)(F)F)cc2Cl)nc(C(=O)OC)c1Cl [F40, methyl 3-chloro-6-(2-chloro-4-(trifluoromethyl)phenyl)-4-ethynylpicolinate] | 0 to 29
